Results from patent publication US11524962B2, “Substituted pyrrolo[2,3-d]pyrimidines as inhibitors of protein arginine methyl transferase 5 (PRMT5)” (PRELUDE THERAPEUTICS, INCORPORATED, priority 2017, dated 2022).

What was measured:
[1] = tested on: Symmetric Di-Methyl Arginine (sDMA) marks in U-87 MG cells; assay: sDMA Western blot / In Cell Western in U-87 MG cells; format: cell-based; conditions: Homo sapiens, 72 h, 3 days, read-out: sDMA_U87 IC50
Description: Compound titration and cell culture: Compounds were dissolved in DMSO to make 10 mM stock and 3-fold series dilutions were further conducted to make working stocks top at 1 mM. Granta-519 cells were maintained in PRMI 1640 (Corning Cellgro, Catalog #: 10-040-CV) supplemented with 10% v/v FBS (GE Healthcare, Catalog #: SH30910.03) and U-87 MG cells were maintained in DMEM (Corning Cellgro, Catalog #: 10-013-CV) with 10% FBS and 2 mM Glutamin (Corning Cellgro, Catalog #25005CV).
To determine enzyme inhibition IC50 values in Granta-519 and U-87 MG cells using Western Blot analysis. One day before experiment, Granta-519 cells were passaged to a density of 0.5×10^6 cells/ml. U-87 MG cells were trypsinized and 4×10^5 cells were seeded into 6-well plates and allow to grow overnight. The next day, Granta-519 cells were spun down at 1,500 rpm for 4 min, resuspend in fresh medium at 0.5×10^6 cells/ml and 3 mL of culture (1.5×10^6 cells) were seeded into 6 well plate. Eight-point, 3-fold serial dilutions of compound working stocks were added to cells (3 ul, 1:1,000 dilution, DMSO concentration was 0.1%; final top concentration at 1 uM) and incubated for 3 days. Cells incubated with DMSO was used as a vehicle control.
Cells were harvested 3 days later, resuspended in 15 uL PBS, lysed in 4% SDS, and homogenized by passing through homogenizer column (Omega Biotek, Catalog #: HCR003). Total protein concentrations were determined by BCA assay (ThermoFisher Scientific, Catalog #: 23225). Lysates were mixed with 5× Laemmli buffer and boiled for 5 min. Forty ug of total protein was separated on SDS-PAGE gels (Bio-Rad, catalog #: 4568083, 4568043), transferred to PVDF membrane, blocked with 5% dry milk (Bio-Rad, Catalog #: 1706404) in TBS with 0.1% v/v Tween 20 (TBST) for 1 hour at room temperature (RT), and incubated with primary antibodies (sDMA: Cell signaling, Catalog #: 13222, 1:3,000; β-Actin: sigma, Catalog #: 1:5,000) in 5% dry milk in TBST at 4° C. overnight. The next day, membranes were washed with TBST, 5×5 min, and incubated with HRP conjugated seconded antibody (GE Healthcare; Catalog #: NA934-1ML, NA931-1ML; 1:5,000) for 2 hours at RT, followed by 5×5 min washes with TBST, and incubation with ECL substrates (Bio-Rad, Catalog #: 1705061, 1705062). Chemiluminescent signal was captured with Fluochem HD2 imager (Proteinsimple). SmD3me2s bands were quantified by ImageJ. Signals were normalized to β-Actin and DMSO control. IC50 values were calculated using Graphpad Prism ([Inhibitor]vs. normalized response−Variable slope).
U87-MG cells were trypsinized one day before the experiment, seeded into a 384-well plate at 2500 cells/well using a Multidrop Combi Dispenser (ThermoFisher) and allowed to grow overnight. The next day (day 0), a series of 9-point, 3-fold serial dilutions of compounds were prepared and dispensed into wells from a 1 mM stock solution using a TECAN digital dispenser (D300e) and the DMSO % concentration was normalized to 0.1%. Three days later, media was removed, and cells were processed as described above.
To determine IC50 values, the ratio for each well was calculated (sDMA 800 nm value/DRAQ5 700 nm value). Each plate included 28 negative control wells (DMSO only, minimum inhibition) and 18 positive control wells for maximum inhibition (treated with 3 uM of a reference compounds, background wells). The average ratios of minimum and maximum inhibition controls were calculated and used to determine the percentage of sDMA, relative to DMSO, for each well in the plate.
These procedures generated the sDMA data in Table 7.

U-87 MG cells = assay: Cell proliferation assay in U-87 MG cells; format: cell-based; conditions: Homo sapiens, 240 h, day 10, read-out: Prolif_U87 IC50
Description: One day before experiment, Granta-519 cells were passaged to a density of 0.5×10^6 cells/ml. U-87 MG cells were trypsinized and 2,000 cells were seeded into 96-well plates and allow to grow overnight. On the day of experiment (day 0), Granta-519 Cells were spun down at 1,500 rpm for 4 min, resuspended in fresh medium to 0.5×10^6 cells/ml and 190 ul of cells were added to 96 well plates. For U-87 MG cells, old medium was removed and replaced with 190 uL fresh medium. Compound working stocks were first diluted at 1:50 with fresh medium in 96 well plate and 10 μL of diluted drugs were added to 96 well plates containing cells and incubated for 3 days. DMSO was used a vehicle control.
One day 3, 50 uL of Granta-519 cells were transferred to a new 96-well plate and 140 uL fresh medium was added. For U-87 MG cells, old medium was removed and replaced with 190 uL fresh medium. Compound working stocks were freshly diluted at 1:50 with medium and 10 μL of diluted drugs were added to cells and grow for 3 additional days. The same process was repeated on day 6. Cells were allowed to grow for additional 4 days.
On day 10, 100 uL Granta-519 cells were transferred to a new 96 well plate and 10 μL of Cell Counting Kit-8 (CCK-8, Jojindo, CK04-13) solution was added. For U-87 MG cells, old medium was removed and replaced with 100 uL fresh medium and 10 uL CCK-8 solution was added. Plates were incubated in CO2 incubator for 2 hours (Granta-519 cells) or 30 min (U-87 MG cells) and OD450 values were measured with a microplate reader (iMark microplate reader, Bio-Rad). Percentage of viable cells, relative to DMSO vehicle control, were calculated and plotted in Graphpad Prism ([Inhibitor]vs. normalized response−Variable slope) to determine proliferation IC50 values on day 10.
These cell proliferation procedures produced the data in Table 7.

SMILES	IC50 [1] [nM]	IC50 (U-87 MG cells) [nM]
Cc1ncnc2c1ccn2[C@@H]1O[C@H]([C@H](O)c2ccc3c(c2)CC3)[C@@H](O)[C@H]1O [Example 11, (2R,3S,4R,5R)-2-((R)-bicyclo[4.2.0]octa-1(6),2,4-trien-3-yl(hydroxy)methyl)-5-(4-methyl-7H-pyrrolo[2,3-d]pyrimidin-7-yl)tetrahydrofuran-3,4-diol]	53	206
Nc1ncnc2c1c(F)cn2[C@@H]1O[C@H]([C@H](O)c2ccc3c(c2)CC3)[C@@H](O)[C@H]1O [Example 6, (2R,3R,4S,5R)-2-(4-amino-5-fluoro-7H-pyrrolo[2,3-d]pyrimidin-7-yl)-5-((R)-bicyclo[4.2.0]octa-1(6),2,4-trien-3-yl(hydroxy)methyl)tetrahydrofuran-3,4-diol]	94	115
